Literature values, collected in patent US20040213782A1, “Compositions of an aquaporin modulating agent and an aqueous humor modulating agent for the treatment of elevated intraocular pressure” (Pharmacia Corporation, priority 2003, published 2004).

Assays:
[1] = tested on: AQP2; conditions: kidney of cardiomyopathic hamsters; Wong and Tsui (2002)
[2] = tested on: AQP1; conditions: epididymis of rats; Yu et al. (2002)
[3] = among corticosteroids; ophthalmic or systemic administration

| Compound | expression of AQP2 [1] | other results |
| --- | --- | --- |
| CCOC(=O)[C@H](CCc1ccccc1)N[C@@H](C)C(=O)N1CCC[C@H]1C(=O)O [enalapril] | significant decrease | – |
| angiotensin II (DRVYIHPF; Angiotensin-2; UniProt P01019 25-32, looked up) [peptide that increases the expression of AQP2 in the kidney of cardiomyopathic hamsters] | increases | – |
| CC(=O)Nc1nnc(S(N)(=O)=O)s1 [acetazolamide] | – | level of AQP1 expression [2]: significant decrease |
| C[C@@H]1C[C@H]2[C@@H]3CCC4=CC(=O)C=C[C@]4(C)[C@@]3(F)[C@@H](O)C[C@]2(C)[C@@]1(O)C(=O)CO [dexamethasone] | – | increase in intraocular pressure [3]: most pronounced increase |
